The source made the active and inactive calls. How the calls were made is not given here.
Each compound was assayed on 697B cells, BCR-induced NF-kB luciferase reporter luminescence (assay: inhibitors of BCR-induced NF-kB activation, dose response, 697B cells, luciferase luminescence (AID 489023)).

Structure (SMILES)	IC50
COC(=O)c1cc(NC(=O)Nc2cc(OC)ccc2OC)cc(C(=O)OC)c1	> 80 µM (inactive)
CCOc1ccc(-c2nnc(SCC(=O)NC3CC3)o2)cc1	62 µM (inactive)
N=c1c2c(n(Cc3cccc(Cl)c3)c3c1CCC3)CCCC2	59.9 µM (inactive)
Cn1c(=O)cc(SCC(=O)N2CCCC2)c2cc(Cl)ccc21	> 80 µM (inactive)
C[C@H]1CCC/C=C/[C@@H]2C[C@H](O)C[C@H]2[C@H](O)/C=C/C(=O)O1	> 80 µM (inactive)
CC(C)(C)c1ccc(-c2noc(CCC(N)=O)n2)cc1	< 0.16 µM
Fc1ccc(C2=Nn3c(nnc3-c3n[nH]c4c3CCC4)SC2)cc1	34.6 µM (inactive)
O=C(N/N=C/c1ccc(Cl)cc1Cl)c1ccc(-n2cnnn2)cc1	> 80 µM (inactive)
COc1ccc(NC(=S)NCc2ccccc2)c(OC)c1	> 80 µM (inactive)
Cc1ccc(C)c(-n2nnnc2Sc2nnnn2-c2ccccc2)c1	1.32 µM
CCn1c(=O)cc(SCC(=O)N2CCC3(CC2)OCCO3)c2ccccc21	> 80 µM (inactive)
CC1=CC(C)(C)Nc2ccc(OC(=O)CN3C(=O)c4ccccc4C3=O)cc21	4.73 µM
CCc1ccc(/C=C2\SC(=S)N(CCCC(=O)Nc3ccccn3)C2=O)cc1	0.55 µM
CCC(CO)Oc1cc(NCc2ccccc2O)c2ncn(C(C)C)c2c1 (stereo not drawn)	> 80 µM (inactive)
O=C(Oc1cccc(/C=N/Nc2nc(N3CCOCC3)nc(N3CCOCC3)n2)c1)c1ccco1	18.4 µM
O=C(NCCC1CCCCN1S(=O)(=O)c1ccc(Cl)cc1)C(=O)NCc1ccncc1 (stereo not drawn)	4.22 µM
COc1ccc(C(=O)N/N=C/c2sc(N3CCOCC3)nc2-c2ccccc2)cc1OC	14.4 µM
Cc1nc([N+](=O)[O-])c(Sc2nc3ccc([N+](=O)[O-])cc3[nH]2)n1Cc1ccccc1	8.74 µM
Cc1cc(N(C)C)ccc1N=Nc1ccc(N)cc1	61.1 µM (inactive)
CC1CCN(CCCNC(=O)COc2cc(=O)n(C)c3ccccc23)CC1	> 80 µM (inactive)
CCc1ccc2nc(Nc3nc(COC)cc(=O)[nH]3)nc(C)c2c1	> 80 µM (inactive)
O=C(CCCN1C(=O)S/C(=C\c2ccccc2)C1=O)NNC(=O)c1ccccc1O	1.64 µM
Cc1ccc(S(=O)(=O)N2CCCCC2CCNC(=O)C(=O)NCc2ccncc2)cc1 (stereo not drawn)	11 µM
CCOc1ccc(-n2c(-c3ccccc3)c[n+]3c2CCCCC3)cc1	> 80 µM (inactive)
COc1ccc(C(C(=O)NC2CCCCC2)N(C(=O)CCl)c2ccc(OC)cc2)cc1 (stereo not drawn)	0.57 µM

Structure (SMILES)	IC50
N#CC1=C(N)Oc2cc(Nc3ccccc3)ccc2C1c1ccncc1 (stereo not drawn)	8.6 µM
Cc1ccc(C(=O)CSc2nnc(COc3cccc(C)c3)o2)cc1	> 80 µM (inactive)
Cc1ccc(/C=C2\SC(=S)N(CCC(=O)NNC(=O)c3ccncc3)C2=O)cc1	> 80 µM (inactive)
Cc1ccc(C(=O)C[n+]2cc(-c3ccc(C)cc3)n3c2CCCCC3)cc1	38.9 µM (inactive)
COc1ccc(/C=C2\SC(=S)N(CCC(=O)Nc3ccc(O)cc3)C2=O)cc1	> 80 µM (inactive)
CCc1ccc(/C=C2/SC(=S)N(CCC(=O)Nc3cccnc3)C2=O)cc1	0.85 µM
N=c1c2c(n(Cc3ccc(Cl)c(Cl)c3)c3c1CCC3)CCCC2	31.1 µM (inactive)
CCCS(=O)(=O)Nc1cccc(-c2ccc3nnc(C)n3n2)c1	> 80 µM (inactive)
CCc1ccc(/C=C2/SC(=S)N(CCC(=O)Nc3ccc(C(=O)O)cc3)C2=O)cc1	4.07 µM
Cc1ccc(-c2nc(C(=O)NCC3CCCO3)cc3c2[nH]c2ccccc23)cc1 (stereo not drawn)	12.8 µM
CC1Cc2ccccc2N1S(=O)(=O)c1cnc(Cl)c(Cl)c1 (stereo not drawn)	> 80 µM (inactive)
Cc1ccccc1Nc1nc(Cl)c(C=O)s1	> 80 µM (inactive)
COC(=O)c1[nH]c2ccc(C)cc2c1NC(=O)Nc1ccccc1OC	> 80 µM (inactive)
NNC(=O)COc1ccc(-c2nccc(-c3ccc(F)cc3)n2)cc1	4.92 µM
COCCCn1c(=O)/c(=C\c2cccc(OC)c2OC)s/c1=C(/C#N)C(=O)Nc1ccc(C(=O)O)cc1	> 80 µM (inactive)
O=C(NNC(=O)c1ccccc1O)c1ccc(Cl)c(S(=O)(=O)N2CCc3ccccc32)c1	> 80 µM (inactive)
CCN(CC(=O)Nc1c(F)cccc1F)C(=O)C1(c2ccccc2)CC1	14.4 µM
CCOC(=O)C1CCN(c2ncnc3c2cnn3-c2ccc(OC)cc2)CC1	> 80 µM (inactive)
COc1ccc2nc(C)cc(Sc3nc4ccccc4s3)c2c1	1.81 µM
O=S(=O)(c1cnc(Cl)c(Cl)c1)N1CCCc2ccccc21	33.8 µM (inactive)
O=C(O)COc1ccc(-c2nccc(-c3ccccn3)n2)cc1	21.7 µM (inactive)
CCN(CC)C(=O)c1ccc(S(=O)(=O)Cc2ccc(C)cc2)c([N+](=O)[O-])c1	3.55 µM
COC(=O)C(C)Oc1cc(C)cc2oc(=O)c3c(c12)CCC3 (stereo not drawn)	58 µM (inactive)
COc1cc(/C=N/Nc2nc(Nc3ccccc3)nc(N3CCOCC3)n2)ccc1OC(=O)c1ccco1	5.16 µM
CC(C)(C)C(=O)/C(=C/c1ccncc1)n1cncn1	3.13 µM

Structure (SMILES)	IC50
O=C(Nc1nc(-c2ccccc2)cs1)c1ccccc1NS(=O)(=O)c1ccc(F)cc1	21.7 µM (inactive)
CN(C)CCCN=Cc1c(-c2ccccc2)[nH]n(-c2nc3ccccc3s2)c1=O	5.81 µM
Cc1cc(OCC(=O)NC2CC2)c2c(C)c(C)c(=O)oc2c1	> 80 µM (inactive)
Cc1ccc(S(=O)(=O)Nc2ccc3c(c2)n(C)c(=O)n3C)cc1	> 80 µM (inactive)
CCC(=O)N(C1=C(NC)C(=O)c2ccccc2C1=O)C(C)C	> 80 µM (inactive)
Cc1ccc(Sc2cc(NCCCO)c([N+](=O)[O-])c3nonc23)cc1	> 80 µM (inactive)
Cc1cc(C)cc(NC(=O)Nc2ccc(NC(=O)c3ccccc3O)cc2)c1	> 80 µM (inactive)
c1ccc(CCNc2ncnc3ccccc23)cc1	60.1 µM (inactive)
Cc1nn(C(C)(C)C)c(C)c1/C=N/OC(=O)Nc1ccc(Cl)c(Cl)c1	0.74 µM
COc1cc(NC(=O)c2cc3c(C)nc4ccccc4c3o2)cc(OC)c1OC	14.1 µM
CC(C)Cn1c([N+](=O)[O-])nc2c1c(=O)[nH]c(=O)n2C	5.67 µM
COc1ccc(C(=O)n2nc(-c3ccc(Cl)cc3)nc2N)cc1OC	1.29 µM
Cc1c(CC(=O)NCCCC(=O)O)c(=O)oc2cc3c(cc12)CCC(C)(C)O3	6.82 µM
Cc1cc(C)cc(NC(=O)c2nnn(Cc3cc(C)ccc3C)c2N)c1	> 80 µM (inactive)
Cc1ccc(-c2nsc3c(N4CCC(C(N)=O)CC4)ncnc23)cc1	6.33 µM
COc1ccc(Cc2nc(-c3ccc(NC(=O)c4cccnc4)cc3)no2)cc1	> 80 µM (inactive)
O=C(Nc1nc2c(Br)cc(Br)cc2c(=O)s1)c1ccco1	1.8 µM
O=C1CCC2S/C(=C/Nc3ccc(C(F)(F)F)cc3)C(=O)N12 (stereo not drawn)	0.93 µM
CC1CC(C)CN(S(=O)(=O)c2ccc(C(=O)NCCCn3ccnc3)cc2)C1 (stereo not drawn)	5.07 µM
CCN1C(=O)c2cccc3c(S(=O)(=O)Nc4ccccc4)ccc1c23	40.4 µM (inactive)
Cc1ccc(C(=O)OCC(=O)N(CC(C)C)c2c(N)n(Cc3ccccc3)c(=O)[nH]c2=O)o1	20.6 µM (inactive)
Cc1ccc(/C=C2\SC(=S)N(CCCC(=O)Nc3ccc(O)cc3)C2=O)cc1	0.27 µM
N=c1ccn2c(n1)OC1C(O)C(CO)OC12 (stereo not drawn)	< 0.16 µM

From PubChem BioAssay AID489023 (Sanford-Burnham Center for Chemical Genomics, 2010)
